Measurements published in patent US8415339B2, “Bactericidal anti-MRSA active pharmaceutical composition containing carbapenems” (priority 2007, dated 2013).
Where “and” joins values, the source holds several entries; their conditions need not be identical. Equal values may be shown once.

Assays:
Staph. Innsbruck [1] = experiment: Agar diffusion (plate/disk) test, inhibition zone; type: cell-based, Staph. aureus; conditions: 20 hrs at 37° C.; for zone of inhibition at 10 µg/disc: Staphylococcus aureus, 20 h, read-out: Diameter of inhibition zone
Experimental: (§1) Inhibition zone diameters were determined on Difco Nutrient Agar (10 ml) in sterile dishes (8.5 cm) using ca. 10^6-10^7 colony forming units. 0.2 ml of a bacterial suspension (overnight culture in Difco Nutrient Broth) was mixed at 52° C. with the sterile liquid agar. It solidified at room temperature. Sterile filter disks (6 mm) were placed on the agar surface. Appropriate volumes of a 0.2% aqueous solutions of antibiotics were transferred to the disks by a precision syringe. Alternatively, commercial impregnated disks (Oxoid) were used.
(§2) The inhibition zone diameter was measured after 20 hrs at 37° C. For determination of bactericidal activity, incubation at 37° C. was continued for additional 40 hrs. A clear inhibition zone after additional incubation indicated bactericidity (B).

MRSA 7268/02 [2] = experiment: Agar diffusion (plate/disk) test, inhibition zone; type: cell-based, Staph. aureus; conditions: 20 hrs at 37° C.; for zone of inhibition at 10 µg/disc: Staphylococcus aureus, MRSA, 20 h, read-out: Diameter of inhibition zone
Experimental: as §1, §2

Staph. Innsbruck [3] = experiment: Minimal inhibitory concentration, agar dilution; type: cell-based, Staph. aureus; conditions: Difco Nutrient Agar, 20 hrs at 37° C., combinations as a + b; for MIC: Staphylococcus aureus
Experimental: (§3) Minimal inhibitory concentrations were determined using Difco Nutrient Agar. Appropriate volumes of 0.1% aqueous solutions of antibiotics were added into sterile dishes (8.5 cm) in twofold dilutions and mixed with 10 ml of sterile liquid agar of 50° C. The solid agar was inoculated with 3 μl of an 0.5 McFarland bacterial solution in Difco Nutrient Broth, corresponding to approx. 10^5 colony forming units. Bacterial growth was recorded after 20 hrs of incubation at 37° C.

MRSA 7268/02 [4] = experiment: Minimal inhibitory concentration, agar dilution; type: cell-based, Staph. aureus; conditions: Difco Nutrient Agar, 20 hrs at 37° C., combinations as a + b; for MIC: Staphylococcus aureus, MRSA
Experimental: as §3

MRSA 7268/02 [5] = experiment: Time dependent counting of colony forming units (cfu); type: cell-based, Staph. aureus
MRSA München 12797 = experiment: Mouse septicaemia test; type: in vivo; conditions: s. c., at 1 hr and 4 hr after i.v. infection, observed 10 days
Experimental: In vivo activity was determined by a mouse septicaemia test using immunocompetent animals of 30 g weight (6 animals per group). Infection was performed with MRSA München 12797 at a concentration of approx. 2×10^9 cfu/mouse by the i.v. route (lethal dose). Therapy was performed at daily doses from 5+5 to 75+75 mg/kg by s. c. route (equivalent amounts at time 1 hr and 4 hr after infection).

[6] = single antibiotic 30 μg per disk
[7] = carbapenem alone 10 μg per disk

Row | Compound | Diameter of inhibition zone (Staph. Innsbruck [1]; [6]) | Diameter of inhibition zone (MRSA 7268/02 [2]; [6]) | other results
1 | CC1(C)S[C@@H]2[C@H](NC(=O)[C@H](N)c3ccccc3)C(=O)N2[C@H]1C(=O)O [Ampicillin] | 12 mm | 12 mm | 
2 | C[C@@H](O)[C@H]1C(=O)N2C(C(=O)O)=C(SCOCCN)[C@H](C)[C@H]12 [GH 570, (1R,5S,6S)-2-[(2-Aminoethyl)oxy]metlhylthio-6-[(R)-1-hydroxyethyl]-1-methylcarbapen-2-em-3-carboxylic acid] |  |  | Diameter of inhibition zone (Staph. Innsbruck [1]; [7]): 0 mm; Diameter of inhibition zone (MRSA 7268/02 [2]; [7]): 0 mm
3 | N[C@@H](C(=O)N[C@@H]1C(=O)N2C(C(=O)O)=C(Cl)CS[C@H]12)c1ccccc1 [Cefaclor] |  | 11 mm | 
4 | CCN1CCN(C(=O)N[C@@H](C(=O)N[C@@H]2C(=O)N3[C@@H]2SC(C)(C)[C@@H]3C(=O)O)c2ccccc2)C(=O)C1=O [Piperacillin] | 0 mm | 0 mm | 
5 | Cc1onc(-c2ccccc2)c1C(=O)N[C@@H]1C(=O)N2[C@@H]1SC(C)(C)[C@@H]2C(=O)O [Oxacillin] | 0 mm | 0 mm | 
6 | CO[C@@]1(NC(=O)C(C(=O)O)c2ccc(O)cc2)C(=O)N2C(C(=O)O)=C(CSc3nnnn3C)CO[C@@H]21 (stereo partly shown) [Moxalactam] | 8 mm |  | 
7 | CC1(C)S[C@@H]2[C@H](NC(=O)[C@H](N)c3ccc(O)cc3)C(=O)N2[C@H]1C(=O)O [Amoxicillin] | 10 mm | 0 mm | MIC (Staph. Innsbruck [3]): 64 µg/mL; MIC (MRSA 7268/02 [4]): 32 µg/mL
8 | C=CC1=C(C(=O)O)N2C(=O)[C@@H](NC(=O)/C(=N\OCC(=O)O)c3csc(N)n3)[C@H]2SC1 [Cefixim] | 0 mm |  | 
9 | CN(C)CCn1nnnc1SCC1=C(C(=O)O)N2C(=O)[C@@H](NC(=O)Cc3csc(N)n3)[C@H]2SC1 [Cefotiam] | 0 mm |  | 
10 | CO/N=C(\C(=O)N[C@@H]1C(=O)N2C(C(=O)O)=C(CSc3nc(=O)c(=O)[nH]n3C)CS[C@H]12)c1csc(N)n1 [Ceftriaxon] | 0 mm | 0 mm | 
11 | COCSC1=C(C(=O)[O-])N2C(=O)[C@H]([C@@H](C)O)[C@H]2[C@H]1C.[K+] [GH 478, Potassium (1R,5S,6S)-6-[(R)-1-hydroxyethyl]-2-methoxymethylthio-1-methylcarbapen-2-em-3-carboxylate] |  |  | Diameter of inhibition zone (Staph. Innsbruck [1]; [7]): 0 mm
12 | CC1(C)S[C@@H]2[C@H](NC(=O)[C@H](N)C3=CCC=CC3)C(=O)N2[C@H]1C(=O)O [Epicillin] | 10 mm and 14 mm and 12 mm | 14 mm and 12 mm | Minimal Inhibitory concentration (Staph. Innsbruck [3]): 32 µg/mL; Minimal Inhibitory concentration (MRSA 7268/02 [4]): 32 µg/mL; Reduction of cfu's, substance used alone (MRSA 7268/02 [5]): Neither epicillin, nor linezolide showed any significant reduction of cfu's
13 | NC(=O)c1cc[n+](CC2=C(C(=O)[O-])N3C(=O)[C@@H](NC(=O)[C@@H](c4ccccc4)S(=O)(=O)O)[C@H]3SC2)cc1 [Cefsudolin] | 0 mm | 0 mm | 
14 | C[C@@H](O)[C@H]1C(=O)N2C(C(=O)O)=C(S[C@@H]3CN[C@H](C(=O)N(C)C)C3)[C@H](C)[C@H]12 [Meropenem] |  |  | MIC (Staph. Innsbruck [3]): 32 µg/mL; MIC (MRSA 7268/02 [4]): 16 µg/mL; ED90 (MRSA München 12797): > 75+75 mg/kg; Bactericidal effect compared with epicillin/meropenem 2+2 μg/ml (MRSA 7268/02 [5]; 4 μg/ml alone): less bactericidal than the epicillin/meropenem composition at 2+2 μg/ml; zone of inhibition at 10 µg/disc (Staph. Innsbruck [1]; [7]): 14 mm; zone of inhibition at 10 µg/disc (MRSA 7268/02 [2]; [7]): 13 mm
15 | CC1(C)S[C@@H]2[C@H](NC(=O)C(C(=O)O)c3ccccc3)C(=O)N2[C@H]1C(=O)O (stereo partly shown) [Carbenicillin] |  | 0 mm | 
16 | C[C@@H](O)[C@H]1C(=O)N2C(C(=O)O)=C(SCCN=CN)C[C@H]12 [Imipenem] |  |  | zone of inhibition at 10 µg/disc (Staph. Innsbruck [1]; [7]): 8 mm; zone of inhibition at 10 µg/disc (MRSA 7268/02 [2]; [7]): 8 mm
17 | Cc1nnc(SCC2=C(C(=O)O)N3C(=O)[C@@H](NC(=O)Cn4cnnn4)[C@H]3SC2)s1 [Cefazolin] | 0 mm | 0 mm | 
18 | CO/N=C(\C(=O)N[C@@H]1C(=O)N2C(C(=O)O)=C(COC(C)=O)CS[C@H]12)c1csc(N)n1 [Cefotaxime] | 0 mm | 0 mm | 
19 | CC(=O)NCSC1=C(C(=O)[O-])N2C(=O)[C@H]([C@@H](C)O)[C@H]2[C@H]1C.[K+] [GH 519, Potassium (1R,5S,6S)-2-[(N-acetylamino)methylthio]-6-[(R)-1-hydroxyethyl]-1-methyl-carbapenen-2-em-3-carboxylate] |  |  | Diameter of inhibition zone (Staph. Innsbruck [1]; [7]): 0 mm; Diameter of inhibition zone (MRSA 7268/02 [2]; [7]): 0 mm
20 | COc1cccc(OC)c1C(=O)N[C@@H]1C(=O)N2[C@@H]1SC(C)(C)[C@@H]2C(=O)O [Methicillin] | 0 mm |  | 
21 | CN[C@H](CC(C)C)C(=O)N[C@H]1C(=O)N[C@@H](CC(N)=O)C(=O)N[C@H]2C(=O)N[C@H]3C(=O)N[C@H](C(=O)N[C@H](C(=O)O)c4cc(O)cc(O)c4-c4cc3ccc4O)[C@H](O)c3ccc(c(Cl)c3)Oc3cc2cc(c3O[C@@H]2O[C@H](CO)[C@@H](O)[C@H](O)[C@H]2O[C@H]2C[C@](C)(N)[C@H](O)[C@H](C)O2)Oc2ccc(cc2Cl)[C@H]1O [Vancomycin] | 20 mm | 19 mm | 
22 | CCN1CCN(C(=O)N[C@@H](C(=O)N[C@@H]2C(=O)N3C(C(=O)O)=C(CSc4nnnn4C)CS[C@H]23)c2ccc(O)cc2)C(=O)C1=O [Cefoperazone] |  | 9 mm | 
23 | CO/N=C(\C(=O)N[C@@H]1C(=O)N2C(C(=O)O)=C(COC(N)=O)CS[C@H]12)c1ccco1 [Cefuroxim] |  | 0 mm | 
24 | Cc1onc(-c2ccccc2Cl)c1C(=O)N[C@@H]1C(=O)N2[C@@H]1SC(C)(C)[C@@H]2C(=O)O [Cloxacillin] | 0 mm | 0 mm | 
25 | C[C@@H](O)[C@H]1C(=O)N2C(C(=O)O)=C(S[C@@H]3CN[C@H](C(=O)Nc4cccc(C(=O)O)c4)C3)[C@H](C)[C@H]12 [Ertapenem] |  |  | zone of inhibition at 10 µg/disc (Staph. Innsbruck [1]; [7]): 0 mm; zone of inhibition at 10 µg/disc (MRSA 7268/02 [2]; [7]): 0 mm
26 | Cc1onc(-c2c(Cl)cccc2Cl)c1C(=O)N[C@@H]1C(=O)N2[C@@H]1SC(C)(C)[C@@H]2C(=O)O [Dicloxacillin] | 0 mm | 0 mm | 
27 | CC(=O)NC[C@H]1CN(c2ccc(N3CCOCC3)c(F)c2)C(=O)O1 [linezolide] |  |  | Reduction of cfu's, substance used alone (MRSA 7268/02 [5]): Neither epicillin, nor linezolide showed any significant reduction of cfu's
28 | CO[C@@]1(NC(=O)Cc2cccs2)C(=O)N2C(C(=O)O)=C(COC(N)=O)CS[C@@H]21 [Cefoxitin] | 11 mm | 0 mm | MIC (Staph. Innsbruck [3]): 32 µg/mL
29 | C=CC1=C(C(=O)O)N2C(=O)[C@@H](NC(=O)/C(=N\O)c3csc(N)n3)[C@H]2SC1 [Cefdinir] |  | 0 mm | 
30 | CC(=O)OCC1=C(C(=O)O)N2C(=O)[C@@H](NC(=O)Cc3cccs3)[C@H]2SC1 [Cephalothin] |  | 0 mm | 
